According to paper PMC12147761 (Journal of medicinal chemistry, 2025):
Like-named read-outs stand apart in the source and are kept apart here.

Assays:
[1] = biological target: T1, CDK16/CycY (Homo sapiens, UniProt Q00536); assay: CDK family panel, ADP-Glo; assay type: biochemical
T1 construct: ICE Bioscience Inc. (assay service)
Description: (§1) All the kinase activity were performed using an ADP-Glo kinase assay by ICE Bioscience Inc. (Beijing, China).

[2] = biological target: T2, CDK14/CycY (Homo sapiens, UniProt O94921); assay: CDK family panel, ADP-Glo; assay type: biochemical
T2 construct: ICE Bioscience Inc. (assay service)
Description: as §1

[3] = biological target: T3, CDK5/p35NCK (Homo sapiens, UniProt Q00535); assay: CDK family panel, ADP-Glo; assay type: biochemical
T3 construct: ICE Bioscience Inc. (assay service)
Description: (§2) All the kinase activity were performed using an ADP-Glo kinase assay by ICE Bioscience Inc. (Beijing, China). Kinome selectivity profiles (KINOMEscan profiling) and Kd detection were performed by Eurofins DiscoveryX Corporation (San Diego, CA, USA).

[4] = biological target: T4, CDK4/CycD1 (Homo sapiens, UniProt P11802); assay: CDK family panel, ADP-Glo; assay type: biochemical
T4 construct: ICE Bioscience Inc. (assay service)
Description: as §2

[5] = biological target: T5, CDK5/p25NCK (Homo sapiens, UniProt Q00535); assay: CDK family panel, ADP-Glo; assay type: biochemical
T5 construct: ICE Bioscience Inc. (assay service)
Description: as §1

[6] = biological target: T6, CDK7/CycH/MAT1 (Homo sapiens, UniProt P50613); assay: CDK family panel, ADP-Glo; assay type: biochemical
T6 construct: ICE Bioscience Inc. (assay service)
Description: as §1

[7] = biological target: T7, CDK8/CycC (Homo sapiens, UniProt P49336); assay: CDK family panel, ADP-Glo; assay type: biochemical
T7 construct: ICE Bioscience Inc. (assay service)
Description: as §1

[8] = biological target: T8, CDK2/CycA2 (Homo sapiens, UniProt P24941); assay: CDK family panel, ADP-Glo; assay type: biochemical
T8 construct: ICE Bioscience Inc. (assay service)
Description: as §1

[9] = Pharmacokinetics study in mice; assay type: in vivo, ICR mice; conditions: for AUC(0-t) / Cmax / Tmax / clearance / half-life / bioavailability: both sexes, ICR, mouse, plasma
[10] = intravenous, i.v. 2.5 mg/kg (Table S5, intraperitoneal study)

T6 sequence (P50613 whole entry, species assumed): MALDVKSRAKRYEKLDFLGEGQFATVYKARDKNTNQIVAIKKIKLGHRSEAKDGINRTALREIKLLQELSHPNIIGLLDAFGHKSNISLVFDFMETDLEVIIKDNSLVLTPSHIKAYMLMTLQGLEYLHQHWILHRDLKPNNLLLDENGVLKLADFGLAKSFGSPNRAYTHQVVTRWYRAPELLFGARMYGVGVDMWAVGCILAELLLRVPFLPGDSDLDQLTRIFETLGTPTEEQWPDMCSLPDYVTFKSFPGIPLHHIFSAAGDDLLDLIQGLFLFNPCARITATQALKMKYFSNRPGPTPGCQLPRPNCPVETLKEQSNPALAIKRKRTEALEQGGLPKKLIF
T6 sequence (P51946 whole entry partner, species assumed): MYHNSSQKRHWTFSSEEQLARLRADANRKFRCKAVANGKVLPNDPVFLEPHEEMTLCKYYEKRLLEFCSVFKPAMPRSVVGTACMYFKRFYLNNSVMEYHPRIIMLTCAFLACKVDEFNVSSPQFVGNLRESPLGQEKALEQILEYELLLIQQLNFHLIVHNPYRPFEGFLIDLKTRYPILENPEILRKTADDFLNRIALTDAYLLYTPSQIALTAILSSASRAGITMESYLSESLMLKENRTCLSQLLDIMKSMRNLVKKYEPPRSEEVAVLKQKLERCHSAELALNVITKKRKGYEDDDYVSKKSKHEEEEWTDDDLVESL
T6 sequence (P51948 whole entry partner, species assumed): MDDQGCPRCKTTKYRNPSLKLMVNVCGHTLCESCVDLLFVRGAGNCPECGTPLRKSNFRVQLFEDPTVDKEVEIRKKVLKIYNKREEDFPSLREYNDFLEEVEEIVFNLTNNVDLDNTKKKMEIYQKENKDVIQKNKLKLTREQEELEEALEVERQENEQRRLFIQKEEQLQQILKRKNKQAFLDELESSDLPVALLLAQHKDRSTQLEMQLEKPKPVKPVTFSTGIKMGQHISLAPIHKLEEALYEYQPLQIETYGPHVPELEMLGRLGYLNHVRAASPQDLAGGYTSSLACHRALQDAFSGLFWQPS
T1 sequence (Q00536 whole entry, species assumed): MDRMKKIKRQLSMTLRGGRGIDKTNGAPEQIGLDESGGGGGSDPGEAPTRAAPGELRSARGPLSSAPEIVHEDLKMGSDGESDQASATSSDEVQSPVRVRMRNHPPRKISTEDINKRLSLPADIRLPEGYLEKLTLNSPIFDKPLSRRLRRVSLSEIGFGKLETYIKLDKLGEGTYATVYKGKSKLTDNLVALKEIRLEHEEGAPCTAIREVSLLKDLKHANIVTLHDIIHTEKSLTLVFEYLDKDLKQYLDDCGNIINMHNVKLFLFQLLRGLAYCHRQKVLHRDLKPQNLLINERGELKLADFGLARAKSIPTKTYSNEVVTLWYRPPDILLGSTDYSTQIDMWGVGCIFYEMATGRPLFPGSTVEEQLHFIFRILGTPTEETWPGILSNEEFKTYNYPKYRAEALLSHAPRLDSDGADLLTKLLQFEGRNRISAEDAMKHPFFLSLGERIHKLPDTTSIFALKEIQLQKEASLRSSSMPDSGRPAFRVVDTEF
T1 sequence (Q8ND76 whole entry partner, species assumed): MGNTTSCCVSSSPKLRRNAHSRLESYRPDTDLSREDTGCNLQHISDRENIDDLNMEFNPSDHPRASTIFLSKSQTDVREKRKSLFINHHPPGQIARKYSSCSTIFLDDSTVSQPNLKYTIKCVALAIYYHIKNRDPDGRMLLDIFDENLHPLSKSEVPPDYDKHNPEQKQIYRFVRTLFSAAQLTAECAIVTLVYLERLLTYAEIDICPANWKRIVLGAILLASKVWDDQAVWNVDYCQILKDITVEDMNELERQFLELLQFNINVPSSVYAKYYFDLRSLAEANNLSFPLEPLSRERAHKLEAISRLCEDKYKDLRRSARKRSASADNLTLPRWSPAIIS
T7 sequence (P49336 whole entry, species assumed): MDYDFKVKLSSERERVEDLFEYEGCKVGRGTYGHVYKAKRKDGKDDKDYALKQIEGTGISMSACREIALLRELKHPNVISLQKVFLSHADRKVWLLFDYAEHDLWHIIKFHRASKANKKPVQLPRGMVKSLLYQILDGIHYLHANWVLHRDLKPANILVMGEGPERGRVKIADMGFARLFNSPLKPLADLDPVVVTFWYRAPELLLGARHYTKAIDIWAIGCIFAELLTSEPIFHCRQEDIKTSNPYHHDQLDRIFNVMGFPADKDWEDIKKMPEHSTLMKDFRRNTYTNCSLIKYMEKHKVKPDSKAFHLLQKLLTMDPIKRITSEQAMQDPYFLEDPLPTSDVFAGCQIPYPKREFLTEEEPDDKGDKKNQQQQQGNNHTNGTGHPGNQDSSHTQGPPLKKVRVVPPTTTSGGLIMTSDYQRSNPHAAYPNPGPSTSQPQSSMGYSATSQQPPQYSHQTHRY
T7 sequence (P24863 whole entry partner, species assumed): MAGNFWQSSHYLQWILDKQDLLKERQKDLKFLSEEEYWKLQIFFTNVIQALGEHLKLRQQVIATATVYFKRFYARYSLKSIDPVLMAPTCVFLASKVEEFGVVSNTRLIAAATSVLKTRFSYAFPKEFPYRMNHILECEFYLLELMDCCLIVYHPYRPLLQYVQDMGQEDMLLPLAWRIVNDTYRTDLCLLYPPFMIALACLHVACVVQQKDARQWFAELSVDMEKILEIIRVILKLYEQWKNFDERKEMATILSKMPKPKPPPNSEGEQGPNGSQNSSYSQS
T2 sequence (O94921 whole entry, species assumed): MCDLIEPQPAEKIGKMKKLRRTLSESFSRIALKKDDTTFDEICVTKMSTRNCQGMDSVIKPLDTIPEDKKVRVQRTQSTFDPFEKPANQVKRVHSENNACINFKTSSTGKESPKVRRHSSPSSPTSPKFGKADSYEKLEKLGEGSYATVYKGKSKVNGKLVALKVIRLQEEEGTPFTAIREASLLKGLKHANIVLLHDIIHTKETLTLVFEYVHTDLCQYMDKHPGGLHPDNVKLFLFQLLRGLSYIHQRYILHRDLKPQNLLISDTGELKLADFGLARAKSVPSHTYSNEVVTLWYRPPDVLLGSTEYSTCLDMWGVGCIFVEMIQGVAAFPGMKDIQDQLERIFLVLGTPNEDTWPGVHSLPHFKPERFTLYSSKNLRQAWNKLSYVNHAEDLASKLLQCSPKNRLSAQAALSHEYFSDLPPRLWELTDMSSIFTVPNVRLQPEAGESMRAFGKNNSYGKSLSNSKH
T2 sequence (Q8ND76 whole entry partner, species assumed): as the sequence (Q8ND76 whole entry partner, species assumed) above
T4 sequence (P11802 whole entry, species assumed): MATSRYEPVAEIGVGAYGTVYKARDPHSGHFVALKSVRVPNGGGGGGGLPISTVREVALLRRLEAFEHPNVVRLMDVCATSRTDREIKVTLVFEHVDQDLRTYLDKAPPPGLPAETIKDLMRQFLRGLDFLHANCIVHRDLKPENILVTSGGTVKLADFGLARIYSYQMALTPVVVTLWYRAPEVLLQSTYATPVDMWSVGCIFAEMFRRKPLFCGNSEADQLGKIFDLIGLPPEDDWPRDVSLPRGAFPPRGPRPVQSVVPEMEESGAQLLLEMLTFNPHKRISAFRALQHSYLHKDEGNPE
T4 sequence (P24385 whole entry partner, species assumed): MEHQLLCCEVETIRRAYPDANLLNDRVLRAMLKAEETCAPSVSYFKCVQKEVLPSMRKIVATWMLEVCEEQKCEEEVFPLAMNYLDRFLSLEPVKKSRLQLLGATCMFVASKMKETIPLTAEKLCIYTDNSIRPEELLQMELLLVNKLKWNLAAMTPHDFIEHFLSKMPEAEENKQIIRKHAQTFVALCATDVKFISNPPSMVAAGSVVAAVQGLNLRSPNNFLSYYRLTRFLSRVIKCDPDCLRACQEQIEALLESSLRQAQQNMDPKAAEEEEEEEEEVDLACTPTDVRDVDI
T5 sequence (Q00535 whole entry): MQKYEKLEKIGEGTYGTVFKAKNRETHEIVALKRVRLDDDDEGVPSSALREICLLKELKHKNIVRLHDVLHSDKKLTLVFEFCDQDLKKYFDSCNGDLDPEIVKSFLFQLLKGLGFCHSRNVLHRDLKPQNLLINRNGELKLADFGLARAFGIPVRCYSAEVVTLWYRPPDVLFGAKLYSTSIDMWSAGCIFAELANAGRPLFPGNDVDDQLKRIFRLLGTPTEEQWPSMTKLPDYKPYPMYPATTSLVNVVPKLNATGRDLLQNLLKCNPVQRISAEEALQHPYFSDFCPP
T5 sequence (Q15078 99-307 partner): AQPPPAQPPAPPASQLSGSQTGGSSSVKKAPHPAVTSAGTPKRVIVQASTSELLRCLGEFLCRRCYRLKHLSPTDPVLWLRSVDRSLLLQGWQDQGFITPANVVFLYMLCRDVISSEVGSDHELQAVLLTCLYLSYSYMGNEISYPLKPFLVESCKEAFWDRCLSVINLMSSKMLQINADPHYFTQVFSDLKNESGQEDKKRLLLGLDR
T3 sequence (Q00535 whole entry, species assumed): as the sequence (Q00535 whole entry) above
T3 sequence (Q15078 whole entry partner, species assumed): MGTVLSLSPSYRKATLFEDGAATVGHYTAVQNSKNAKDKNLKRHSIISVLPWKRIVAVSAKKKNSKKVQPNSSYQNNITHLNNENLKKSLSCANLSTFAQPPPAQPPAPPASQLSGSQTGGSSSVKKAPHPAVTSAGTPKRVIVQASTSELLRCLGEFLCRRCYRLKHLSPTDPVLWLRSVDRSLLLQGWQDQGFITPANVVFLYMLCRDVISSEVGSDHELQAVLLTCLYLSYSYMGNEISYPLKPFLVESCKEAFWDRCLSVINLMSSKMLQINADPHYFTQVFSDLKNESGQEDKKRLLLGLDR

IC50 [1]: > 10000 nM | IC50 [2]: > 10000 nM | IC50 [3]: > 10000 nM | IC50 [4]: 3390 nM | IC50 [5]: > 10000 nM | IC50 [6]: 2260 nM | IC50 [7]: > 10000 nM | IC50 [8]: > 10000 nM | AUC(0-t) [9, 10]: 1660 ng·h/mL | Cmax [9, 10]: 3310 ng/mL | Tmax [9, 10]: 0.08 h | clearance [9, 10]: 25.6 mL/min/kg | half-life [9, 10]: 1.21 h | bioavailability ([9]; ip, 2.5 mg/kg, i.p. 2.5 mg/kg, read-out: F): 113% | AUC(0-t) ([9]; ip, i.p. 2.5 mg/kg): 1860 ng·h/mL | Cmax ([9]; ip, i.p. 2.5 mg/kg): 1580 ng/mL | Tmax ([9]; ip, i.p. 2.5 mg/kg): 0.33 h | half-life ([9]; ip, i.p. 2.5 mg/kg): 1.46 h | clearance ([9]; iv, i.v. 2 mg/kg): 28.3 mL/min/kg | AUC(0-t) ([9]; iv, i.v. 2.5 mg/kg (Figure 3A)): 1580 ng·h/mL | Cmax ([9]; iv, i.v. 2.5 mg/kg (Figure 3A)): 2810 ng/mL | Tmax ([9]; iv, i.v. 2.5 mg/kg (Figure 3A)): 0.08 h | clearance ([9]; iv, i.v. 2.5 mg/kg (Figure 3A)): 28.3 mL/min/kg | half-life ([9]; iv, i.v. 2.5 mg/kg (Figure 3A)): 1.29 h | bioavailability ([9]; po, 10 mg/kg, p.o. 10 mg/kg, read-out: F (oral bioavailability)): 35.5% | AUC(0-t) ([9]; po, p.o. 10 mg/kg): 2240 ng·h/mL | Cmax ([9]; po, p.o. 10 mg/kg): 639 ng/mL | Tmax ([9]; po, p.o. 10 mg/kg): 1.5 h | half-life ([9]; po, p.o. 10 mg/kg): 2.32 h | clearance rate, times lower than that of 14h ([9]; i.v.): 4 time | F (oral bioavailability) ([9]; p.o. 10 mg/kg, 10 mg/kg): 35.5%
Compound: C=CC(=O)Nc1cc(N(C(=O)NCc2ccccc2)[C@H]2CC[C@H](Nc3ccc(C#N)cn3)CC2)ccc1N1CCC(N(C)C)CC1 [YJZ5118, N-(5-(3-benzyl-1-((1r,4r)-4-((5-cyanopyridin-2-yl)amino)cyclohexyl)ureido)-2-(4-(dimethylamino)piperidin-1-yl)phenyl)acrylamide]
